The test system of test [1] is G4_1-4 (DNA, G4) CCGGGGCGGGCCGGGGGCGGGGTC
The test is described as follows: ECD thermal melting. Conditions: KCl concentration not stated for this experiment; 50 mM Tris-HCl pH 7.4; 10 µM TMPyP4, 5 µM DNA.

The subject of test [2] is G4mod1 (DNA, G4, 5-hydroxymethylcytosine at 7) CCGGGGCGGGCCGGGGGCGGGGTC
The test is described as follows: ECD thermal melting. Particulars: KCl concentration not stated for this experiment; 50 mM Tris-HCl pH 7.4; 10 µM TMPyP4, 5 µM DNA.

As for `C[n+]1ccc(-c2c3nc(c(-c4cc[n+](C)cc4)c4ccc([nH]4)c(-c4cc[n+](C)cc4)c4nc(c(-c5cc[n+](C)cc5)c5ccc2[nH]5)C=C4)C=C3)cc1`, the ΔTM in test [1] and in test [2] was 12 °C in each case.
